Data as given in ChEMBL document CHEMBL1146181, “7'-substituted benzothiazolothio- and pyridinothiazolothio-purines as potent heat shock protein 90 inhibitors” (J Med Chem, 2006).
Values after ≈ are worked out from the molar mass of the structure shown.

Columns and labels:
Heat shock protein HSP90 [1] = biological target: T1, Heat shock protein HSP90 (Homo sapiens, UniProt P07900+P08238); experiment: Ability to degrade Her2 in MCF7 cells; assay type: functional, cell-based
MCF7 = experiment: Viability of MCF7 cells by MTS assay; assay type: functional, cell-based; settings: Homo sapiens
Mus musculus = experiment: AUC in Balb/C mouse at 100 mg/kg, po; assay type: ADME, organism-based, Plasma; set-up: dose 100 mg/kg, route oral; settings: in vivo
[2] = Solubility in simulated intestinal fluid at pH 6.5; assay type: physicochemical
Heat shock protein HSP90 [3] = biological target: T1, Heat shock protein HSP90; settings: mcf7
Description: Binding affinity to Hsp90 in MCF7 cell lysate

[4] = Solubility in Balb/C mouse serum at pH 7.4; assay type: ADME, cell-free
[5] = Solubility in simulated gastric fluid at pH 2.0; assay type: physicochemical
[6] = Cmax in Balb/C mouse at 100 mg/kg, po; assay type: ADME, organism-based; set-up: dose 100 mg/kg, route oral; settings: in vivo
NCI-N87 = experiment: Inhibition of N87 cell line xenografted in mouse at 200 mg/kg, po; assay type: functional, Homo sapiens; settings: read-out: TGI

| SMILES | IC50 (Heat shock protein HSP90 [1]) [nM] | EC50 (MCF7) [nM] | also measured |
| --- | --- | --- | --- |
| CCCCn1c(Sc2nc3ccccc3s2)nc2c(N)ncnc21 | 5000 | 10000 | – |
| CCn1c(Sc2nc3cccc(Cl)c3s2)nc2c(N)ncnc21 | 200 | 800 | – |
| CC(C)NCCCn1c(Sc2nc3cccc(Cl)c3s2)nc2c(N)ncnc21 | 170 | 500 | – |
| Nc1ncnc2c1nc(Sc1nc3cccc(Cl)c3s1)n2CCCO | 150 | 250 | – |
| CCCCn1c(Sc2nc3cccc(C)c3s2)nc2c(N)ncnc21 | 300 | 1300 | – |
| CC(=O)OCCCn1c(Sc2nc3cccc(Cl)c3s2)nc2c(N)ncnc21 | 90 | 200 | AUC (Mus musculus): 1040 ng·h/mL; solubility [2]: 16 µg/mL (≈ 36.8 µM); EC50 (Heat shock protein HSP90 [3]): 160 nM; solubility [4]: 9 µg/mL (≈ 20.7 µM); solubility [5]: 220 µg/mL (≈ 506 µM) |
| N#CCCCCn1c(Sc2nc3cccc(Cl)c3s2)nc2c(N)ncnc21 | 110 | 300 | solubility [2]: 4.4 µg/mL (≈ 10.6 µM); EC50 (Heat shock protein HSP90 [3]): 100 nM; solubility [4]: 31.3 µg/mL (≈ 75.3 µM); solubility [5]: 58.7 µg/mL (≈ 141 µM) |
| CCCCn1c(Sc2nc3ccc(Cl)c(Cl)c3s2)nc2c(N)ncnc21 | 25000 | 20000 | – |
| CCCCn1c(Sc2nc3cncc(Cl)c3s2)nc2c(N)ncnc21 | 280 | 1000 | – |
| CCCCn1c(Sc2nc3c(Cl)cccc3s2)nc2c(N)ncnc21 | 15000 | 20000 | – |
| CC(C)(C)CNCCn1c(Sc2nc3cccc(Cl)c3s2)nc2c(N)ncnc21 | 35 | 30 | solubility [4]: 4.9 µg/mL (≈ 10.9 µM) |
| CCCCn1c(Sc2nc3ccc(Cl)cc3s2)nc2c(N)ncnc21 | 7000 | 20000 | – |
| CCCCn1c(Sc2nc3cccc(Br)c3s2)nc2c(N)ncnc21 | 330 | 2000 | – |
| CCOP(=O)(CCn1c(Sc2nc3cncc(Br)c3s2)nc2c(N)ncnc21)OCC | – | 100 | – |
| CCCCCn1c(Sc2nc3cccc(Cl)c3s2)nc2c(N)ncnc21 | 700 | 6000 | – |
| CCCCn1c(Sc2nc3cncc(Br)c3s2)nc2c(N)ncnc21 | 400 | 4000 | – |
| CC(C)(C)NCCCn1c(Sc2nc3cccc(Cl)c3s2)nc2c(N)ncnc21 | 150 | 200 | solubility [2]: 138 µg/mL (≈ 307 µM); solubility [4]: 199 µg/mL (≈ 444 µM) |

| SMILES | IC50 (Heat shock protein HSP90 [1]) [nM] | EC50 (MCF7) [nM] | also measured |
| --- | --- | --- | --- |
| Nc1ncnc2c1nc(Sc1nc3cccc(Cl)c3s1)n2CCCCO | 150 | 200 | – |
| CCCCn1c(Sc2nc3cccc(Cl)c3s2)nc2c(N)ncnc21 | 180 | 250 | – |
| CCOP(=O)(CCn1c(Sc2nc3cncc(Cl)c3s2)nc2c(N)ncnc21)OCC | – | 250 | solubility [2]: 38.3 µg/mL (≈ 76.6 µM); solubility [4]: 14 µg/mL (≈ 28 µM); solubility [5]: 124 µg/mL (≈ 248 µM) |
| CC(=O)OCCCn1c(Sc2nc3cncc(Cl)c3s2)nc2c(N)ncnc21 | 170 | 1000 | – |
| CCCCn1c(Sc2nc3cccc(OCC)c3s2)nc2c(N)ncnc21 | 100000 | 16000 | – |
| Nc1ncnc2c1nc(Sc1nc3cccc(Cl)c3s1)n2CCN1CCOCC1 | 250 | 300 | EC50 (Heat shock protein HSP90 [3]): 150 nM |
| Nc1ncnc2c1nc(Sc1nc3cccc(Cl)c3s1)n2CCNC1CC1 | 110 | 300 | AUC (Mus musculus): 7310 ng·h/mL; solubility [2]: 21 µg/mL (≈ 50.2 µM); EC50 (Heat shock protein HSP90 [3]): 130 nM; Cmax [6]: 4510 ng/mL; solubility [4]: 59 µg/mL (≈ 141 µM); solubility [5]: 245 µg/mL (≈ 586 µM); inhibition in vivo at 200 mg/kg (NCI-N87): 56% |
| CCOP(=O)(CCn1c(Sc2nc3cccc(Cl)c3s2)nc2c(N)ncnc21)OCC | – | – | solubility [5]: 98.5 µg/mL (≈ 197 µM) |
| CC(C)(C)NCCn1c(Sc2nc3cccc(Cl)c3s2)nc2c(N)ncnc21 | 140 | 300 | – |
| CC(=O)OCCCCn1c(Sc2nc3cccc(Cl)c3s2)nc2c(N)ncnc21 | 130 | 240 | solubility [2]: 3 µg/mL (≈ 6.68 µM); EC50 (Heat shock protein HSP90 [3]): 140 nM; solubility [5]: 46 µg/mL (≈ 102 µM) |
| CCCCn1c(Sc2nc3cccc(F)c3s2)nc2c(N)ncnc21 | 200 | 1000 | – |
| CCCCn1c(Sc2nc3cccc(OC)c3s2)nc2c(N)ncnc21 | 190 | 230 | solubility [2]: 2 µg/mL (≈ 5.17 µM); EC50 (Heat shock protein HSP90 [3]): 200 nM; solubility [4]: 18 µg/mL (≈ 46.6 µM); solubility [5]: 35 µg/mL (≈ 90.6 µM) |
| CCCCn1c(Sc2nc3cc(Cl)ccc3s2)nc2c(N)ncnc21 | 20000 | 20000 | – |
| CCCn1c(Sc2nc3cccc(Cl)c3s2)nc2c(N)ncnc21 | 250 | 850 | – |
| Nc1ncnc2c1nc(Sc1nc3cccc(Cl)c3s1)n2CCO | 300 | 700 | – |
| CC(=O)OCCn1c(Sc2nc3cccc(Cl)c3s2)nc2c(N)ncnc21 | 150 | 300 | – |
